Details: 323.15 K, Liquid, Vibrating tube method

CCCC(=O)OCC(COC(=O)CCC)(COC(=O)CCC)COC(=O)CCC [pentaerythritol tetrabutyrate]
Details | mass density [kg/m3]
30112 kPa | 1045
30149 kPa | 1045.1
30193 kPa | 1045.1
30232 kPa | 1045.2
30562 kPa | 1045.3
30601 kPa | 1045.3
30640 kPa | 1045.5
30680 kPa | 1045.4
30730 kPa | 1045.5
30771 kPa | 1045.5
30818 kPa | 1045.4
30850 kPa | 1045.6
30881 kPa | 1045.6
30918 kPa | 1045.7
30948 kPa | 1045.6
30979 kPa | 1045.6
31009 kPa | 1045.7
31047 kPa | 1045.6
31079 kPa | 1045.6
31110 kPa | 1045.6
31146 kPa | 1045.7
31178 kPa | 1045.9
31209 kPa | 1045.6
31247 kPa | 1045.7
31278 kPa | 1045.7
31310 kPa | 1045.8
31347 kPa | 1045.9
31379 kPa | 1045.9
31411 kPa | 1045.8
31450 kPa | 1045.8
31481 kPa | 1045.9
31513 kPa | 1045.9
31546 kPa | 1046
31584 kPa | 1045.9
31616 kPa | 1046
31649 kPa | 1046
31690 kPa | 1046
31725 kPa | 1046
31758 kPa | 1046
31791 kPa | 1046
31830 kPa | 1046.2
31863 kPa | 1046.2
31896 kPa | 1046.1
31936 kPa | 1046.2
31970 kPa | 1046.2
32003 kPa | 1046.3
32043 kPa | 1046.2
32151 kPa | 1046.3
32179 kPa | 1046.3
32219 kPa | 1046.4
32253 kPa | 1046.3
32288 kPa | 1046.4
32328 kPa | 1046.5
32362 kPa | 1046.4
32403 kPa | 1046.5
32437 kPa | 1046.5
32472 kPa | 1046.5
32506 kPa | 1046.5
32548 kPa | 1046.5
32583 kPa | 1046.6
32618 kPa | 1046.6
32660 kPa | 1046.7
32694 kPa | 1046.6
32737 kPa | 1046.6
32772 kPa | 1046.7
32808 kPa | 1046.9
32843 kPa | 1046.6
32886 kPa | 1046.8
32921 kPa | 1046.8
33152 kPa | 1046.9
33188 kPa | 1047
33232 kPa | 1046.9
33268 kPa | 1047

Reference: the NIST ThermoML archive (doi:10.1021/je060271a)
